ChEMBL document CHEMBL1671617, “Correlation of antimicrobial resistance with beta-lactamases, the OmpA-like porin, and efflux pumps in clinical isolates of Acinetobacter baumannii endemic to New York City” (2008)

Experiments:
Format in all cases: functional
[1] = system: Acinetobacter baumannii; test: Antimicrobial activity against ISAba1 linked with the blaOXA-51-type beta-lactamase harboring Acinetobacter baumannii zeta clonal group isolate 24 expressing ampC, ompA, adeB, adeM, aadA1, aacA4, aacC2, blaSHV-5 by Etest method
[2] = system: Acinetobacter baumannii; test: Antimicrobial activity against ISAba1 linked with the blaOXA-51-type beta-lactamase harboring Acinetobacter baumannii alpha clonal group isolate 8 expressing ampC, ompA, adeB, adeM, aacC1, aadA1 by Etest method
[3] = system: Acinetobacter baumannii; test: Antimicrobial activity against ISAba1 linked with the blaOXA-51-type beta-lactamase harboring Acinetobacter baumannii beta clonal group isolate 16 expressing ompA, adeB, adeM, aacA4, blaSHV-5 by Etest method
[4] = system: Acinetobacter baumannii; test: Antimicrobial activity against ISAba1 linked with the blaOXA-51-type beta-lactamase harboring Acinetobacter baumannii zeta clonal group isolate 19 expressing ampC, ompA, adeB, adeM, aacC2 by Etest method
[5] = system: Acinetobacter baumannii; test: Antimicrobial activity against Acinetobacter baumannii alpha clonal group isolate 4 expressing ampC, ompA, adeB, adeM, aacC1, aadA1 by Etest method
[6] = system: Acinetobacter baumannii; test: Antimicrobial activity against Acinetobacter baumannii lambda clonal group isolate 27 expressing ampC, ompA, adeB, adeM, aadB, aadA1 by Etest method
[7] = system: Acinetobacter baumannii; test: Antimicrobial activity against ISAba1 linked with the blaOXA-51-type beta-lactamase harboring Acinetobacter baumannii zeta clonal group isolate 23 expressing ampC, ompA, adeB, adeM, aadA1, aacA4, aacC2, aphA6 by Etest method
[8] = system: Acinetobacter baumannii; test: Antimicrobial activity against ISAba1 linked with the blaOXA-51-type beta-lactamase harboring Acinetobacter baumannii zeta clonal group isolate 22 expressing ampC, ompA, adeB, adeM, aadA1, aacA4, aacC2, blaSHV-5 by Etest method
[9] = system: Acinetobacter baumannii; test: Antimicrobial activity against Acinetobacter baumannii alpha clonal group isolate 5 expressing ampC, ompA, adeB, adeM, aacC1, aadA1 by Etest method
[10] = system: Acinetobacter baumannii; test: Antimicrobial activity against ISAba1 linked with the blaOXA-51-type beta-lactamase harboring Acinetobacter baumannii beta clonal group isolate 10 expressing ompA, adeB, adeM, aacA4, blaSHV-5 by Etest method
[11] = system: Acinetobacter baumannii; test: Antimicrobial activity against ISAba1 linked with the blaOXA-51-type beta-lactamase harboring Acinetobacter baumannii beta clonal group isolate 11 expressing ompA, adeB, adeM, blaSHV-5 by Etest method
[12] = system: Acinetobacter baumannii; test: Antimicrobial activity against Acinetobacter baumannii unique clonal group isolate 37 expressing ampC, ompA, adeB, adeM by Etest method
[13] = system: Acinetobacter baumannii; test: Antimicrobial activity against Acinetobacter baumannii eta clonal group isolate 36 expressing ampC, ompA, adeB, adeM by Etest method
[14] = system: Acinetobacter baumannii; test: Antimicrobial activity against Acinetobacter baumannii nu clonal group isolate 33 expressing ampC, ompA, adeB, adeM by Etest method
[15] = system: Acinetobacter baumannii; test: Antimicrobial activity against Acinetobacter baumannii unique clonal group isolate 39 expressing ampC, ompA, adeM by Etest method
[16] = system: Acinetobacter baumannii; test: Antimicrobial activity against ISAba1 linked with the blaOXA-51-type beta-lactamase harboring Acinetobacter baumannii zeta clonal group isolate 20 expressing ampC, ompA, adeB, adeM, aacC2 by Etest method
[17] = system: Acinetobacter baumannii; test: Antimicrobial activity against ISAba1 linked with the blaOXA-51-type beta-lactamase harboring Acinetobacter baumannii lambda clonal group isolate 29 expressing ampC, ompA, adeM, aadB, aadA1 by Etest method
[18] = system: Acinetobacter baumannii; test: Antimicrobial activity against ISAba1 linked with the blaOXA-51-type beta-lactamase harboring Acinetobacter baumannii unique clonal group isolate 40 expressing ampC, ompA, adeB, adeM, aadA1, aacA4, aacC2, blaSHV-5 by Etest method
[19] = system: Acinetobacter baumannii; test: Antimicrobial activity against Acinetobacter baumannii alpha clonal group isolate 2 expressing ampC, ompA, adeB, adeM, aacC1, aadA1 by Etest method
[20] = system: Acinetobacter baumannii; test: Antimicrobial activity against ISAba1 linked with the blaOXA-51-type beta-lactamase harboring Acinetobacter baumannii alpha clonal group isolate 7 expressing ampC, ompA, adeB, adeM, blaSHV-5 by Etest method
[21] = system: Acinetobacter baumannii; test: Antimicrobial activity against Acinetobacter baumannii nu clonal group isolate 31 expressing ampC, ompA, adeB, adeM, aadB, aadA2 by Etest method
[22] = system: Acinetobacter baumannii; test: Antimicrobial activity against ISAba1 linked with the blaOXA-51-type beta-lactamase harboring Acinetobacter baumannii beta clonal group isolate 17 expressing ompA, adeB, adeM, aacA4, blaSHV-5 by Etest method
[23] = system: Acinetobacter baumannii; test: Antimicrobial activity against ISAba1 linked with the blaOXA-51-type beta-lactamase harboring Acinetobacter baumannii beta clonal group isolate 13 expressing ompA, adeB, adeM, aacA4, blaSHV-5 by Etest method
[24] = system: Acinetobacter baumannii; test: Antimicrobial activity against ISAba1 linked with the blaOXA-51-type beta-lactamase harboring Acinetobacter baumannii zeta clonal group isolate 25 expressing ampC, ompA, adeB, adeM, aadA1, aacA4, aacC2, blaSHV-5 by Etest method
[25] = system: Acinetobacter baumannii; test: Antimicrobial activity against ISAba1 linked with the blaOXA-51-type beta-lactamase harboring Acinetobacter baumannii lambda clonal group isolate 28 expressing ampC, ompA, adeM, aadB, aadA1 by Etest method
[26] = system: Acinetobacter baumannii; test: Antimicrobial activity against ISAba1 linked with the blaOXA-51-type beta-lactamase harboring Acinetobacter baumannii alpha clonal group isolate 6 expressing ampC, ompA, adeB, adeM, aacC1, aadA1 by Etest method
[27] = system: Acinetobacter baumannii; test: Antimicrobial activity against ISAba1 linked with the blaOXA-51-type beta-lactamase harboring Acinetobacter baumannii zeta clonal group isolate 21 expressing ampC, ompA, adeB, adeM, aacC2, blaSHV-5 by Etest method
[28] = system: Acinetobacter baumannii; test: Antimicrobial activity against ISAba1 linked with the blaOXA-51-type beta-lactamase harboring Acinetobacter baumannii beta clonal group isolate 9 expressing ampC, ompA, adeB, adeM by Etest method
[29] = system: Acinetobacter baumannii; test: Antimicrobial activity against ISAba1 linked with the blaOXA-51-type beta-lactamase harboring Acinetobacter baumannii alpha clonal group isolate 1 expressing ampC, ompA, adeB, adeM by Etest method
[30] = system: Acinetobacter baumannii; test: Antimicrobial activity against Acinetobacter baumannii nu clonal group isolate 32 expressing ampC, ompA, adeB, adeM, aadB, aadA2 by Etest method
[31] = system: Acinetobacter baumannii; test: Antimicrobial activity against ISAba1 linked with the blaOXA-51-type beta-lactamase harboring Acinetobacter baumannii beta clonal group isolate 18 expressing ompA, adeB, adeM, aacA4, blaSHV-5 by Etest method
[32] = system: Acinetobacter baumannii; test: Antimicrobial activity against ISAba1 linked with the blaOXA-51-type beta-lactamase harboring Acinetobacter baumannii beta clonal group isolate 14 expressing ompA, adeB, adeM, aacA4, blaSHV-5 by Etest method
[33] = system: Acinetobacter baumannii; test: Antimicrobial activity against Acinetobacter baumannii nu clonal group isolate 34 expressing ampC, ompA, adeB, adeM by Etest method
[34] = system: Acinetobacter baumannii; test: Antimicrobial activity against Acinetobacter baumannii unique clonal group isolate 38 expressing ampC, ompA, adeB, adeM by Etest method
[35] = system: Acinetobacter baumannii; test: Antimicrobial activity against ISAba1 linked with the blaOXA-51-type beta-lactamase harboring Acinetobacter baumannii lambda clonal group isolate 30 expressing ampC, ompA, adeB, adeM, aadB, aadA1 by Etest method
[36] = system: Acinetobacter baumannii; test: Antimicrobial activity against Acinetobacter baumannii eta clonal group isolate 35 expressing ampC, ompA, adeB, adeM by Etest method
[37] = system: Acinetobacter baumannii; test: Antimicrobial activity against ISAba1 linked with the blaOXA-51-type beta-lactamase harboring Acinetobacter baumannii zeta clonal group isolate 26 expressing ampC, ompA, adeB, adeM, aadA1, aacA4, aacC2, blaSHV-5 by Etest method
[38] = system: Acinetobacter baumannii; test: Antimicrobial activity against ISAba1 linked with the blaOXA-51-type beta-lactamase harboring Acinetobacter baumannii beta clonal group isolate 12 expressing ompA, adeB, adeM, aacA4, aacC2, blaSHV-5 by Etest method
[39] = system: Acinetobacter baumannii; test: Antimicrobial activity against ISAba1 linked with the blaOXA-51-type beta-lactamase harboring Acinetobacter baumannii beta clonal group isolate 15 expressing ompA, adeB, adeM, aacA4, blaSHV-5 by Etest method
[40] = system: Acinetobacter baumannii; test: Antimicrobial activity against Acinetobacter baumannii alpha clonal group isolate 3 expressing ampC, ompA, adeB, adeM, aacC1, aadA1 by Etest method

Sequence GENTAMICIN has an MIC [1] of over 256 µg/mL, an MIC [2] of 192 µg/mL and an MIC [3] of 8 µg/mL. For the same sequence, the MIC [4] was over 256 µg/mL, the MIC [5] was 12 µg/mL and the MIC [6] was 1.5 µg/mL. It also gave an MIC [7] of over 256 µg/mL, an MIC [8] of over 256 µg/mL and an MIC [9] of 12 µg/mL. It also gave an MIC [10] of 4 µg/mL, an MIC [11] of 2 µg/mL and an MIC [12] of 6 µg/mL. The MIC [13] was 3 µg/mL, the MIC [14] was 2 µg/mL and the MIC [15] was 0.38 µg/mL. The MIC [16] was over 256 µg/mL, the MIC [17] was 16 µg/mL and the MIC [18] was over 256 µg/mL. The MIC [19] was 12 µg/mL, the MIC [20] was 2 µg/mL and the MIC [21] was over 256 µg/mL. The MIC [22] was 8 µg/mL, the MIC [23] was 8 µg/mL and the MIC [24] was over 256 µg/mL. It also gave an MIC [25] of 16 µg/mL, an MIC [26] of 8 µg/mL and an MIC [27] of over 256 µg/mL. For the same sequence, the MIC [28] was 6 µg/mL, the MIC [29] was 1 µg/mL and the MIC [30] was over 256 µg/mL. For the same sequence, the MIC [31] was 64 µg/mL, the MIC [32] was 8 µg/mL and the MIC [33] was 2 µg/mL. It also gave an MIC [34] of 0.25 µg/mL, an MIC [35] of over 256 µg/mL and an MIC [36] of 3 µg/mL. For the same sequence, the MIC [37] was over 256 µg/mL, the MIC [38] was over 256 µg/mL and the MIC [39] was 8 µg/mL. For the same sequence, the MIC [40] was 12 µg/mL.
